Where two headings read alike, the source gives them in different places.
Key:
[1] = target: Cys242 in human PIK3CA (157-299) (Homo sapiens (Human), UniProt P42336); test: Covalent modification assay using MALDI-TOF MS; assay type: biochemical; details: 4 h reaction time point
Outline: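 Covalent adduct formation was read by linear-mode MALDI-TOF with sinapinic acid matrix, reported as modified-protein peak height divided by total protein peak heights. Reactions held PIK3CA (157-299) at 1 or 3.33 μM in HEPES/NaCl/MgCl2 buffer, pH 7.3, sampled after 15 min to 4 h at room temperature.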

[2] = tested on: pAKT in BT474 cells; test: Cell-based pAKT HTRF assay in BT474 cells; details: BT474 cells, 4 hr incubation, read-out: pAKT inhibition IC50 in BT474 cells
Outline: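 Compound titration: 3 μM downward in 3-fold steps, nine points, 4 hr on cells. Detection: lysis, then d2 plus Eu Cryptate antibody mix, room-temperature incubation of 4–24 h, and time-resolved fluorescence read at 615 nm.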

[3] = 3.33 μM protein target, 1:7.5 protein to compound ratio (compounds 1-852)
[4] = 1 μM protein target, 1:5 protein to compound ratio (compounds 853-1279)

Chain of Cys242 in human PIK3CA (157-299) (P42336 157-299): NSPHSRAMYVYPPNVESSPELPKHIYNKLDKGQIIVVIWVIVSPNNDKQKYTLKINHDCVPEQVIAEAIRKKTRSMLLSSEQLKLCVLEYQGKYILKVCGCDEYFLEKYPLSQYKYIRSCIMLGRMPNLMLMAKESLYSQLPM

SMILES | % of modification [1, 3] | IC50 ([2]; Compounds 10-999) | % of modification [1, 4] | IC50 ([2]; Compounds 1000-1279)
C=CC(=O)N1CCn2cc(-c3nc(-c4ccc(=O)n(C)c4)c4ccsc4c3-c3ccc(F)cc3OC(C)C)nc2C1 [Compound 272] | A (percent of modification of PIK3CA protein ≥75%) | < 100 nM |  | 
C=CC(=O)N1CCc2nc(-c3nc(-c4ccc(N)nc4)c4ccsc4c3-c3ccc(F)cc3OCCOC)sc2C1 [Compound 142] | A (percent of modification of PIK3CA protein ≥75%) | < 100 nM |  | 
C=CC(=O)N1CCn2nc(-c3nc(-c4ccc5nn(C)cc5c4)c4ccsc4c3-c3c(F)cc(F)cc3OCCOC)cc2[C@H]1C [Compound 749] | A (percent of modification of PIK3CA protein ≥75%) | < 100 nM |  | 
C=CC(=O)N1CCn2nc(-c3nc(-c4ccc5cnncc5c4)c4ccsc4c3-c3c(F)cc(F)cc3OCCO)cc2C1C (centres unmarked) [Compound 660] | C (25%≤percent of modification <50%) | 100 to 1000 nM |  | 
C=CC(=O)N1CCc2nc(-c3nc(-c4ccn(C(C)C)c(=O)c4)c4ccsc4c3-c3ccc(F)cc3OCCOC)sc2C1 [Compound 139] | A (percent of modification of PIK3CA protein ≥75%) | 100 to 1000 nM |  | 
C=CC(=O)N1Cc2cc(-c3nc(-c4ccc5c(c4)CCN(C)C5)c4ccsc4c3-c3c(F)cc(F)cc3OC(C)C)nn2C(C)C1 (centres unmarked) [Compound 555] | D (percent of modification <25%) | 100 to 1000 nM |  | 
C=CC(=O)N1Cc2cc(-c3nc(-c4cnn(C)c4)c4ccsc4c3-c3c(F)cc(F)cc3OC)nn2C[C@H]1C [Compound 820] | A (percent of modification of PIK3CA protein ≥75%) | < 100 nM |  | 
C=CC(=O)N1CCn2nc(-c3nc(-c4ccc(OC5CN(C)C5)nc4)c4ccsc4c3-c3c(F)cc(F)cc3OCCOC)cc2C1C (centres unmarked) [Compound 1205] |  |  | A (percent of modification of PIK3CA protein ≥75%) | < 100 nM
C=CC(=O)N1CC(n2cc(-c3nc(N4CCC5(CC4)CS(=O)(=O)C5)c4ccsc4c3-c3ccc(F)cc3OCCOC)cn2)C1 [Compound 149] | A (percent of modification of PIK3CA protein ≥75%) | 100 to 1000 nM |  | 
C=CC(=O)N1Cc2cc(-c3nc(-c4ccc5nncn5c4)c4ccsc4c3-c3c(F)cc(F)cc3OCC(C)O)nn2C(C)C1 (centres unmarked) [Compound 643] | A (percent of modification of PIK3CA protein ≥75%) | < 100 nM |  | 
C=CC(=O)N1Cc2cc(-c3nc(-c4cnc(C)nc4)c4ccsc4c3-c3c(F)cc(F)cc3OC[C@@H](C)O)nn2C[C@H]1C [Compound 757] | A (percent of modification of PIK3CA protein ≥75%) | < 100 nM |  | 
C=CC(=O)N1CCn2nc(-c3nc(-c4ccc5c(cnn5C)c4)c4ccsc4c3-c3c(F)cc(F)cc3OCCOC(F)F)cc2C1C (centres unmarked) [Compound 1234] |  |  | A (percent of modification of PIK3CA protein ≥75%) | < 100 nM
C=CC(=O)N1CCc2nc(-c3nc(N4CCCC(N(C)C)C4)c4ccsc4c3-c3ccc(F)cc3OCCOC)sc2C1 (centres unmarked) [Compound 159] | B (50%<percent of modification <75%) | 100 to 1000 nM |  | 
C=CC(=O)N1CCc2nc(-c3nc(-c4ccc5c(c4)CNC5=O)c4ccsc4c3-c3c(F)cc(F)cc3OCCO)sc2C1 [Compound 1052] |  |  | A (percent of modification of PIK3CA protein ≥75%) | < 100 nM
C=CC(=O)N1CCn2nc(-c3nc(-c4ccc5cn(C)nc5c4)c4ccsc4c3-c3c(F)cc(F)cc3OCCO)cc2[C@@H]1C [Compound 780] | A (percent of modification of PIK3CA protein ≥75%) | < 100 nM |  | 
C=CC(=O)N1CCc2cc(-c3nc(-c4ccc5c(c4)CNC(=O)C5)c4ccsc4c3-c3c(F)cc(F)cc3OCCOC)nn2CC1 [Compound 1024] |  |  | A (percent of modification of PIK3CA protein ≥75%) | < 100 nM
C=C(F)C(=O)N1CCn2nc(-c3nc(-c4cnn(C)c4)c4ccsc4c3-c3ccc(F)cc3OC(C)C)cc2C1 [Compound 295] | B (50%<percent of modification <75%) | 100 to 1000 nM |  | 
C=CC(=O)N1CC[C@H](n2cc(-c3nc(-c4ccc5c(c4)CCC(O)C5)c4ccsc4c3-c3ccc(F)cc3OCCOC)cn2)C1 (some centres unmarked) [Compound 64] | A (percent of modification of PIK3CA protein ≥75%) | < 100 nM |  | 
C=CC(=O)N1CCn2nc(-c3nc(-c4ccc5c(c4)CCN(C(C)C)C5)c4ccsc4c3-c3ccc(F)cc3OC(F)F)nc2C1 [Compound 218] | A (percent of modification of PIK3CA protein ≥75%) | < 100 nM |  | 
C=CC(=O)N1CCn2nc(-c3nc(-c4cnc5c(c4)CN(CCCF)CC5)c4ccsc4c3-c3c(F)cc(F)cc3OCCOC)cc2C1C (centres unmarked) [Compound 1158] |  |  | A (percent of modification of PIK3CA protein ≥75%) | < 100 nM

SMILES | % of modification [1, 3] | IC50 ([2]; Compounds 10-999) | % of modification [1, 4] | IC50 ([2]; Compounds 1000-1279)
C=CC(=O)N1CCc2c(nc(-c3nc(-c4ccc5c(c4)CCNC5)c4ccsc4c3-c3ccc(F)cc3OCCOC)n2C)C1 [Compound 99] | A (percent of modification of PIK3CA protein ≥75%) | < 100 nM |  | 
C=CC(=O)N1CCn2nc(-c3nc(-c4cnn(C)c4)c4ccsc4c3-c3c(F)cc(F)cc3F)cc2C1 [Compound 292] | A (percent of modification of PIK3CA protein ≥75%) | 100 to 1000 nM |  | 
C=CC(=O)N1CCc2cc(-c3nc(-c4cnc5c(c4)CNC(=O)C5)c4ccsc4c3-c3c(F)cc(F)cc3OCCOC)nn2CC1 [Compound 1005] |  |  | D (percent of modification <25%) | > 1000 nM
C=CC(=O)N1Cc2cc(-c3nc(-c4ccc5c(c4)CN(C)C5=O)c4ccsc4c3-c3c(F)cc(F)cc3OCCO)nn2CC1C (centres unmarked) [Compound 494] | A (percent of modification of PIK3CA protein ≥75%) | < 100 nM |  | 
C=CC(=O)N1CC(n2cc(-c3nc(-c4ccc5c(c4)CCNC5)c4ccsc4c3-c3cnn(C)c3)cn2)C1 [Compound 90] | D (percent of modification <25%) | > 3000 nM |  | 
C=CC(=O)N1CCc2nc(-c3nc(-c4cnc5c(c4)CNC(=O)C5)c4ccsc4c3-c3c(F)cc(F)cc3OCCOC)sc2C1 [Compound 446] | A (percent of modification of PIK3CA protein ≥75%) | < 100 nM |  | 
C=CC(=O)N1CCc2cc(-c3nc(-c4ccc5cn(C)nc5c4)c4ccsc4c3-c3c(F)cc(F)cc3OCCOC)nn2CC1 [Compound 1027] |  |  | A (percent of modification of PIK3CA protein ≥75%) | < 100 nM
C=CC(=O)N1CCn2nc(-c3nc(-c4ccc(=O)n(C)c4)c4ccsc4c3-c3ccc(F)cc3OC(C)C)cc2C1 [Compound 201] | A (percent of modification of PIK3CA protein ≥75%) | < 100 nM |  | 
C=CC(=O)N1CCc2ccc(-c3nc(-c4ccc5c(c4)CNC(=O)C54CC4)c4ccsc4c3-c3c(F)cc(F)cc3OCCOC)cc2C1 [Compound 1191] |  |  | A (percent of modification of PIK3CA protein ≥75%) | < 100 nM
C=CC(=O)N1CCn2nc(-c3nc(-c4ccnc(N)c4)c4ccsc4c3-c3ccc(F)cc3OC(F)F)cc2C1 [Compound 226] | A (percent of modification of PIK3CA protein ≥75%) | < 100 nM |  | 
C=CC(=O)N1CCn2nc(-c3nc(-c4ccc5c(c4)CCN(C)C5)c4ccsc4c3-c3c(F)cc(F)cc3OC[C@@H](C)O)cc2[C@H]1C [Compound 721] | A (percent of modification of PIK3CA protein ≥75%) | < 100 nM |  | 
C=CC(=O)N1CCc2nc(-c3nc(-c4cnc5c(c4)CNCC5)c4ccsc4c3-c3ccc(F)cc3OCCOC)sc2C1 [Compound 227] | A (percent of modification of PIK3CA protein ≥75%) | < 100 nM |  | 
C=CC(=O)N1Cc2cc(-c3nc(-c4ccc5nc(C)oc5c4)c4ccsc4c3-c3c(F)cc(F)cc3OCCOC)nn2CC1C (centres unmarked) [Compound 497] | A (percent of modification of PIK3CA protein ≥75%) | < 100 nM |  | 
C=CC(=O)N1CCc2nc(-c3nc(-c4ccc5c(cnn5C)c4)c4ccsc4c3-c3c(F)cc(F)cc3OCCO)sc2C1 [Compound 1032] |  |  | D (percent of modification <25%) | > 1000 nM
C=CC(=O)N1CC[C@H](n2cc(-c3nc(-c4ccnc(N)c4)c4ccsc4c3-c3ccc(F)cc3OCC3CCNC(=O)C3)ccc2=O)C1 (some centres unmarked) [Compound 241] | A (percent of modification of PIK3CA protein ≥75%) | 100 to 1000 nM |  | 
C=CC(=O)N1CCn2nc(-c3nc(-c4ccc5c(c4)[nH]c(=O)n5C)c4ccsc4c3-c3c(F)cc(F)cc3OCCOC)cc2C1C (centres unmarked) [Compound 1092] |  |  | A (percent of modification of PIK3CA protein ≥75%) | < 100 nM
C=CC(=O)N1CC(n2cc(-c3nc(-c4ccc5c(c4)CNC(=O)C5)c4ccsc4c3-c3ccc[nH]c3=O)cn2)C1 [Compound 91] | D (percent of modification <25%) | > 3000 nM |  | 
C=CC(=O)N1CCc2nc(-c3nc(-c4ccc5c(c4)CS(=O)(=O)C5)c4ccsc4c3-c3ccc(F)cc3OCCOC)sc2C1 [Compound 116] | A (percent of modification of PIK3CA protein ≥75%) | < 100 nM |  | 
C=CC(=O)N1CCn2nc(-c3nc(-c4ccc5ncn(C)c5c4)c4ccsc4c3-c3c(F)cc(F)cc3OCCO)cc2[C@H]1C [Compound 653] | B (50%<percent of modification <75%) | < 100 nM |  | 
C=CC(=O)N1Cc2cc(-c3nc(-c4ccc5c(c4)CN(C)C5=O)c4ccsc4c3-c3c(F)cc(F)cc3OCCOC)nn2CC1C (centres unmarked) [Compound 474] | A (percent of modification of PIK3CA protein ≥75%) | < 100 nM |  | 

From patent US20250230138A1, “COMPOUNDS HAVING A T-STRUCTURE FORMED BY AT LEAST FOUR CYCLES FOR USE IN THE TREATMENT OF CANCER AND OTHER INDICATIONS” (TheRas, Inc., priority 2022, published 2025)
